Source: patent publication US20240335431A1, “1-H-PYRROLO[2,3-c]PYRIDINE COMPOUNDS” (Acerta Pharma B.V., priority 2023, published 2024)

Columns and labels:
hERG = hERG (Homo sapiens (Human), UniProt Q12809); assay: hERG assay 2, QPatch II 48X, room temperature; type: cell-based; details: hERG DUO cell line, top 200 μM
Description: Experiments were performed on the QPatch II 48X (Sophion Biosciences) high throughput patch clamp platform at room temperature and used single hole Qplates. hERG DUO cell line (BSys) was used. The internal patch clamp solution was KF 60 mM, KCl 70 mM, HEPES 10 mM, EGTA 10 mM, and 5 mM Mg ATP (pH7.2). After sealing and whole cell access was gained the external solution (NaCl 140 mM, KCl 4 mM, HEPES 10 mM, CaCl2 2 mM, MgCl2 1 mM, glucose 5 mM (pH 7.4) was applied twice to establish stable baseline currents. An industry standard +40/−40 mV voltage protocol was applied every 15 seconds. All compounds were tested in a 6-point cumulative assay (final DMSO concentration 0.4-2% depending on stock concentration of compounds). Compounds were dispensed from initial 10 mM or 50 mM DMSO stocks after which DMSO dilutions were undertaken with a top concentration of 200 μM tested. Solvent controls were run in all experiments in line with the DMSO % required. Only wells that passed acceptance criteria for this platform were used in this analysis (500 MegaOhm seal resistance and current size >0.2 nA). Analysis was completed in Prism Graphpad to complete a composite IC50, by plotting % inhibition versus log compound concentration and using a log(inhibitor) vs. response—Variable slope.

muscarinic M2 receptor [1] = target: T1, muscarinic M2 receptor (Homo sapiens (Human), UniProt P08172); assay: Muscarinic M2 receptor binding assay (assay 1); details: [3H]AF-DX 384 2 nM, Cheng Prusoff
Procedure, shortened: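 Membrane homogenates (60 μg protein) were incubated with 2 nM [3H]AF-DX 384 for 60 min at 22° C in Tris-HCl pH 7.4 with NaCl, KCl, MgCl2 and EDTA; 1 μM atropine defined nonspecific binding. Filtration and scintillation counting gave percent inhibition of specific binding, with Ki by Cheng-Prusoff.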

muscarinic M2 receptor [2] = target: T1, muscarinic M2 receptor; assay: Muscarinic M2 receptor functional assay, antagonist effect (assay 2); type: cell-based; details: cAMP, 1 μM acetylcholine
Description: Thereafter, the reference agonist acetylcholine and the adenylyl cyclase activator NKH 477 were added at respective final concentrations of 1 μM and 5 μM. For basal control measurements, acetylcholine was omitted from the wells containing 10 μM methoctramine. Following 10 minutes incubation at 37° C., the cells were lysed, and the fluorescence acceptor (D2-labeled cAMP) and fluorescence donor (anti-cAMP antibody labelled with europium cryptate) were added. After 60 minutes at room temperature, the fluorescence transfer was measured at λex=337 nm and λem=620 and 665 nm using a microplate reader (Rubystar, BMG). The cAMP concentration was determined by dividing the signal measured at 665 nm by that measured at 620 nm (ratio). The results were expressed as a percent inhibition of the control response to 1 μM acetylcholine. For test compounds and for standard reference antagonist methoctramine, which is tested in each experiment, assays were run in eight-point concentration response mode and IC50 values determined following non-linear regression curve analysis. Curve analysis was completed using software developed at Cerep (Hill software) and validated by comparison with data generated by the commercial software SigmaPlot®4.0 for Windows® (© 1997 by SPSS Inc.).

Menin protein = Menin protein (Homo sapiens, UniProt O00255, DEL460-519); assay: Menin/MLL fluorescence polarization (FP) assay; type: binding; details: Menin 2 nM, cRho110-Ahx-MBM1/MBM2 peptide 1 nM
Procedure, shortened: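 Fluorescence polarization of 1 nM cRho110-labelled MBM1/MBM2 peptide with 2 nM His-tagged Menin in 50 mM Tris pH 7.5, 50 mM NaCl, 1 mM TCEP, 0.01% BGG, 0.01% Brij-35. Compound series: 10-fold dilutions from 10 μM; 480/535 nm, read every 5 min for 180 min. IC50 via one-site fit, normalized to no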

hERG ion channel = hERG ion channel (Homo sapiens (Human), UniProt Q12809); assay: hERG assay 3, QPatchII 48X, 30 degrees Celsius; type: cell-based; details: CHO cells
Description: Experiments were performed on the QPatchII 48X(Sophion Biosciences) high throughput patch clamp platform at 30 degrees Celsius using single holes QChips (Sophion Bioscience). Chinese hamster ovary K1 (CHO) cell lines over-expressing the hERG ion channel were used from live culture. All compounds were dispensed as solid stocks in glass vials. Compounds were solubilised to 10 or 50 mM DMSO stocks on the day of experiments, after which dilutions in DMSO we undertaken. Stamps of DMSO stocks were made into an MTP plate using glass vials, after which extracellular solution was backfilled creating testing concentrations with a highest concentration of 40 and 200 μM, respectively. The internal patch clamp solution was KF 60 mM, KCl 70 mM, HEPES 10 mM, EGTA 10 mM, and 5 mM Mg ATP (pH7.2).

Sequence of hERG ion channel (Q12809 whole entry): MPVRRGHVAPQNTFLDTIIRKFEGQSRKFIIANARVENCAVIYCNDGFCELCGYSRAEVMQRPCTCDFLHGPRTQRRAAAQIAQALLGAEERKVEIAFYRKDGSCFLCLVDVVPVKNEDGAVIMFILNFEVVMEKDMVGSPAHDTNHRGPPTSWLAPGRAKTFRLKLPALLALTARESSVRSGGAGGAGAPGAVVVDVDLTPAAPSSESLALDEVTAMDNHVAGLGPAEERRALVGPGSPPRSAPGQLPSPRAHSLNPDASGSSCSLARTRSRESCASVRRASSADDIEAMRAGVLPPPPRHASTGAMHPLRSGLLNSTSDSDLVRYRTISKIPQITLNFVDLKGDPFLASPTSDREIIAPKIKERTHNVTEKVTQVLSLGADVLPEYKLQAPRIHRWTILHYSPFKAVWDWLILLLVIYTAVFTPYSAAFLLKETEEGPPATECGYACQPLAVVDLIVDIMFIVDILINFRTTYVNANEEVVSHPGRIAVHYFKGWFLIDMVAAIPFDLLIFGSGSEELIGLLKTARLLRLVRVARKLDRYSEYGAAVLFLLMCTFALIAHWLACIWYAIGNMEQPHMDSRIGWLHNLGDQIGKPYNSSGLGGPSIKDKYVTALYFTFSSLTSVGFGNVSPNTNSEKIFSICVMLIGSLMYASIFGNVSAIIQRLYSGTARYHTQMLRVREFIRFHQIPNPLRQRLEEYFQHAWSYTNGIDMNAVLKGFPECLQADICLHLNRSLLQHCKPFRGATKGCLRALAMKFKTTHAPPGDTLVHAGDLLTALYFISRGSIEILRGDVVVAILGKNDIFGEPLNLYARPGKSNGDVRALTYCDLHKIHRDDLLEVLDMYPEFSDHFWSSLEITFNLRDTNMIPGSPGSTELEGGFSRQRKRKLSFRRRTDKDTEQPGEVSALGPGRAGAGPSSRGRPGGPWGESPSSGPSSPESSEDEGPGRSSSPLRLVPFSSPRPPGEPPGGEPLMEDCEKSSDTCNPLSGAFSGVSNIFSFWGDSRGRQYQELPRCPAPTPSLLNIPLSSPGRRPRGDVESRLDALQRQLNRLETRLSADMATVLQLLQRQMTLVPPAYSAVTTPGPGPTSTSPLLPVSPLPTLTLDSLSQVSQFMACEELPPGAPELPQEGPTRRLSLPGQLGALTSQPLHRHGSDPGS
Sequence of hERG (Q12809 whole entry): as above
T1 sequence (P08172 whole entry): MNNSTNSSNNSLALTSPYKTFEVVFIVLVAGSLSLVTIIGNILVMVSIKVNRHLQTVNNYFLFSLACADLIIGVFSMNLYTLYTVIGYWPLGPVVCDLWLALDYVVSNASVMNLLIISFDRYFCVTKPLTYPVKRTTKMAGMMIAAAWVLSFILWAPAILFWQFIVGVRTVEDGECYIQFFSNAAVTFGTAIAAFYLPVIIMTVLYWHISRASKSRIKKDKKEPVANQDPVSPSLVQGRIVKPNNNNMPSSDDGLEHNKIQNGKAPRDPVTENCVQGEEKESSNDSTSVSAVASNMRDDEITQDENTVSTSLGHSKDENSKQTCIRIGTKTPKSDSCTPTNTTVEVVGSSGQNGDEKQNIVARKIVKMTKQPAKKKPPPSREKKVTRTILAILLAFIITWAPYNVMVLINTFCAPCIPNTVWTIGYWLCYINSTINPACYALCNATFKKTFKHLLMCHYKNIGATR
Sequence of Menin protein (O00255 with tags, fused parts or gaps DEL460-519): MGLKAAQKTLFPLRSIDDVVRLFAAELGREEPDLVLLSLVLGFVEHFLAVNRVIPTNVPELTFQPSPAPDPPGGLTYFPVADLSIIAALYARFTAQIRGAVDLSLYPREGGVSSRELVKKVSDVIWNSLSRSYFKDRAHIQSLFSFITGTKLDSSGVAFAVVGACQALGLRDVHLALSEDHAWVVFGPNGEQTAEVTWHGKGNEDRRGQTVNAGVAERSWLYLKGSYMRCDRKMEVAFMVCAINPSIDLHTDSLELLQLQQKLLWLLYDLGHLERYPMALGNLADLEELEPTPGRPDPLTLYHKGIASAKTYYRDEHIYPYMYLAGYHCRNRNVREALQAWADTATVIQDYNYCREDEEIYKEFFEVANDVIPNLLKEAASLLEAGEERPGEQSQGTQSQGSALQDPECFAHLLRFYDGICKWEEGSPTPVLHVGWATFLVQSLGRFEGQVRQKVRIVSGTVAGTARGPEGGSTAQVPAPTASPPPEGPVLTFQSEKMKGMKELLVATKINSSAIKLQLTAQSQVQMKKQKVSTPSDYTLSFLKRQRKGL

Ki (muscarinic M2 receptor [1]) [µM] | IC50 (muscarinic M2 receptor [2]) [µM] | Compound | IC50 (hERG) [µM] | IC50 (Menin protein) [µM] | IC50 (hERG ion channel) [µM]
0.2 | 1.1 | CC(C)N(C(=O)c1cc(F)ccc1-n1cc(C(=O)C2CCN(C(=O)[C@H]3N[C@@H]4CC[C@H]3C4)CC2)c2ccncc21)C(C)C [Example 16, 2-(3-(1-((1R,3S,4S)-2-Azabicyclo[2.2.1]heptane-3-carbonyl)piperidine-4-carbonyl)-1H-pyrrolo[2,3-c]pyridin-1-yl)-5-fluoro-N,N-diisopropylbenzamide] | 128 | – | –
10.5 | – | CC(C)c1ncccc1-c1cc(F)ccc1-n1cc(C(=O)C2CN(C(=O)[C@H]3N[C@@H]4CC[C@H]3C4)C2)c2ccncc21 [Example 10, (1-((1R,3S,4S)-2-Azabicyclo[2.2.1]heptane-3-carbonyl)azetidin-3-yl)(1-(4-fluoro-2-(2-isopropylpyridin-3-yl)phenyl)-1H-pyrrolo[2,3-c]pyridin-3-yl)methanone] | 79.1 | – | 33.8
0.8 | 5.2 | CC(C)N(C(=O)c1cc(F)ccc1-n1cc(C(=O)C2CCN(C(=O)[C@H]3NC4CCC3CC4)CC2)c2ccncc21)C(C)C [Example 20, (S)-2-(3-(1-(2-Azabicyclo[2.2.2]octane-3-carbonyl)piperidine-4-carbonyl)-1H-pyrrolo[2,3-c]pyridin-1-yl)-5-fluoro-N,N-diisopropylbenzamide] | > 200 | 0.022 | –
6.6 | > 100 | CC(C)N(C(=O)c1cc(F)ccc1-n1cc(C(=O)C2CN(C(=O)[C@H]3N[C@@H]4CC[C@H]3C4)C2)c2ccncc21)C(C)C [Example 5, 2-(3-(1-((1R,3S,4S)-2-Azabicyclo[2.2.1]heptane-3-carbonyl)azetidine-3-carbonyl)-1H-pyrrolo[2,3-c]pyridin-1-yl)-5-fluoro-N,N-diisopropylbenzamide] | > 200 | – | –
7.3 | 62.8 | CCN(C(=O)c1cc(F)ccc1-n1c(C)c(C(=O)C2CCN(C(=O)[C@H]3NC[C@@H]4C[C@@H]43)CC2)c2ccncc21)C(C)C [Example 47, 2-(3-(1-((1S,2S,5R)-3-Azabicyclo[3.1.0]hexane-2-carbonyl)piperidine-4-carbonyl)-2-methyl-1H-pyrrolo[2,3-c]pyridin-1-yl)-N-ethyl-5-fluoro-N-isopropylbenzamide] | 194 | – | –

Compound | Ki (muscarinic M2 receptor [1]) [µM] | IC50 (muscarinic M2 receptor [2]) [µM] | IC50 (hERG) [µM] | IC50 (Menin protein) [µM] | IC50 (hERG ion channel) [µM]
Cc1c(C(=O)C2CCN(C(=O)[C@@H]3CCC(C)(C)N3)CC2)c2ccncc2n1-c1ccc(F)cc1C(=O)N(C(C)C)C(C)C (single isomer, unassigned) [Compound 56-2] | > 100 | – | 138 | 0.043 | 42.9
Cc1c(C(=O)C2CCN(C(=O)[C@@H]3CCC4(CC4)N3)CC2)c2ccncc2n1-c1ccc(F)cc1C(=O)N1[C@H](C)COC[C@H]1C (single isomer, unassigned) [Example 58-2] | 4.2 | 8.6 | – | 0.03 | 111
